In patent US9181234B2, “Antibacterial compounds” (priority 2010, dated 2015) one finds MIC and solubility data, which are given here for nine compounds.

Converted amounts (≈) assume the structure as drawn.

Data set [1] deals with Staphylococcus aureus (Isolate ID ATCC 29213). Description: Antibacterial activity, MIC, S. aureus. The data set is classed as cell-based. Conditions: Staphylococcus aureus, ATCC29213, Gram positive strain; broth microdilution or agar dilution. On the procedure: (§1) Bacterial Assay: Determination of Antibacterial Activity
(§2) Compounds of the invention were tested for antimicrobial activity by susceptibility testing in liquid or on solid media. MICs for compounds against each strain were determined by the broth microdilution or agar dilution method according to the guidelines of the Clinical Laboratories and Standards Institute, formerly the National Committee for Clinical Laboratory Standards (Clinical Laboratories and Standards Institute. Methods for Dilution Antimicrobial Susceptibility Tests for Bacteria That Grow Aerobically; Approved Standard—Seventh Edition. Document M7-A7. CLSI, Wayne, Pa., 2006; Clinical Laboratories and Standards Institute. The gram positive bacterial strains tested include S. aureus (Staphylococcus aureus (Isolate ID ATCC 29213)), E. faecalis (Enterococcus faecalis (Isolate ID ATCC 29212)) and S. pyogenes (Streptococcus pyogenes (Isolate ID ATCC 51339)). The gram negative bacterial strains tested include H. influenzae (Haemophilus influenzae (Isolate ID ATCC 49247))
(In general: In broth dilution the organism is exposed to a series of concentrations in liquid medium.)

The nature of the next data set: physchem. As to conditions: kinetic from dmso stock. On the procedure:
Turbimetric Assay: Determination of Solubility
The solubility of the compounds was measured using a turbidimetric method. A series of doubling dilutions of compounds were prepared in neat dimethyl sulfoxide (DMSO). 5 μl samples were diluted twenty-fold into 95 μl volumes of 100 mM citrate buffer (pH 4), phosphate buffered saline (PBS, pH 7.4) or carbonate-bicarbonate buffer (pH 9) in microtitre assay plates and allowed to reach equilibrium at room temperature for 24 hours. The absorbance within each well of the plate was read spectrophotometrically at a wavelength of 620 nm. A precipitate forms when the maximum aqueous solubility level is reached. The value quoted is the highest concentration where the compound was in solution i.e. where no measurable precipitate was present. […] ND=not determined

Data set [2] deals with Haemophilus influenzae (Isolate ID ATCC 49247). In words: Antibacterial activity, MIC, H. influenzae. The class given is cell-based. Conditions: Haemophilus influenzae, ATCC49247; Gram negative strain; broth microdilution or agar dilution. Here is the method: as §1, §2
Data set [3] deals with Streptococcus pyogenes (Isolate ID ATCC 51339). Description: Antibacterial activity, MIC, S. pyogenes. As to conditions: Streptococcus pyogenes, ATCC51339, Gram positive strain; broth microdilution or agar dilution. The data set is classed as cell-based. On the procedure: as §1, §2
Where [4] appears, read: pH 7.4, aqueous buffer, Max Solubility.
Setting [5] is: pH 7.4, aqueous buffer, Solubility (pH 7.4).
[6] abbreviates: pH 7.4, aqueous buffer, Solubility Range.
Where [7] appears, read: pH 7.4, aqueous buffer, Solubility Range (maximum solubility).

Usually solubility stands for how much of the substance goes into solution per volume. A lower solubility goes with a poorly soluble substance.

In the case of `CCNC(=O)Nc1nc2cc(-c3cnc(N4CCC(C)(C(=O)O)CC4)nc3)cc(COCCOC)c2s1` [Compound 194], the MIC in data set [1], in data set [2] and in data set [3] was 1 to 16 µg/mL (≈ 1.89 to 30.3 µM) in each case. For the same compound, the solubility at 24 h in the data set “physchem” (setting [4]) is ≥ 800 µg/mL; in “physchem” (setting [5]) it was ≥ 800 µg/mL; in the data set “physchem” (setting [6]) it was > 800 µg/mL; in “physchem” (setting [7]) it was > 800 µg/mL.

`CCNC(=O)Nc1nc2cc(-c3cnnc(N4CCC(C)(C(=O)O)CC4)c3)cc(-c3ccccn3)c2s1` [Compound 195, 1-[5-[2-(ethylcarbamoylamino)-7-(2-pyridyl)-1,3-benzothiazol-5-yl]pyridazin-3-yl]-4-methyl-piperidine-4-carboxylic acid]: the MIC is 1 to 16 µg/mL (≈ 1.93 to 30.9 µM) in data set [1], 1 to 16 µg/mL (≈ 1.93 to 30.9 µM) in data set [2] and ≤ 0.25 µg/mL in data set [3]. The solubility at 24 h in the data set “physchem” (setting [4]) is ≥ 800 µg/mL; in “physchem” (setting [5]), ≥ 800 µg/mL; in the data set “physchem” (setting [6]) it was > 800 µg/mL; in the data set “physchem” (setting [7]), > 800 µg/mL.

With `CCNC(=O)Nc1nc2cc(-c3cnc(NC4COC(C)(C(=O)O)OC4)nc3)cc(-c3ccccn3)c2s1` (stereo not drawn) [Compound 196], the MIC in data set [1], in data set [2] and in data set [3] was 1 to 16 µg/mL (≈ 1.87 to 29.9 µM) in each case. In addition, the solubility at 24 h in “physchem” (setting [5]) is 50 µg/mL (≈ 93.4 µM); in the data set “physchem” (setting [6]), 12.5 to 400 µg/mL (≈ 23.3 to 747 µM); in “physchem” (pH 9, aqueous buffer, Max Solubility) it was 100 µg/mL (≈ 187 µM); in the data set “physchem” (pH 9, aqueous buffer, Solubility Range (maximum solubility)), 12.5 to 400 µg/mL (≈ 23.3 to 747 µM).

`CCNC(=O)Nc1nc2cc(-c3cnc(N4CCC(CC)(C(=O)O)CC4)nc3)cc(C3=NOCC3)c2s1` [Compound 197, 1-[5-[7-(4,5-dihydroisoxazol-3-yl)-2-(ethylcarbamoylamino)-1,3-benzothiazol-5-yl]pyrimidin-2-yl]-4-ethyl-piperidine-4-carboxylic acid]: the MIC in data set [1] is 1 to 16 µg/mL (≈ 1.91 to 30.6 µM); in data set [2], 1 to 16 µg/mL (≈ 1.91 to 30.6 µM); in data set [3], 0.25 to 1 µg/mL (≈ 0.477 to 1.91 µM). The solubility at 24 h in the data set “physchem” (setting [4]) is ≥ 800 µg/mL; in “physchem” (setting [5]), ≥ 800 µg/mL; in the data set “physchem” (setting [6]), > 800 µg/mL; in the data set “physchem” (setting [7]) it was > 800 µg/mL.

Consider `CCNC(=O)Nc1nc2cc(-c3cnc(N4CCC(C)(C(=O)O)CC4)nc3)c(OC)cc2s1` [Compound 198, 1-[5-[2-(Ethylcarbamoylamino)-6-methoxy-1,3-benzothiazol-5-yl]pyrimidin-2-yl]-4-methyl-piperidine-4-carboxylic acid], for which the MIC in data set [1], in data set [2] and in data set [3] was 1 to 16 µg/mL (≈ 2.13 to 34 µM) in each case. Also, the solubility at 24 h in “physchem” (setting [4]) was ≥ 800 µg/mL; in the data set “physchem” (setting [5]), ≥ 800 µg/mL; in “physchem” (setting [6]) it was > 800 µg/mL; in “physchem” (setting [7]) it was > 800 µg/mL.

For the compound `CCNC(=O)Nc1nc2cc(-c3cnc(N4CCC(CC)(C(=O)O)CC4)nc3)cc(C=O)c2s1` [Compound 199, 4-ethyl-1-[5-[2-(ethylcarbamoylamino)-7-formyl-1,3-benzothiazol-5-yl]pyrimidin-2-yl]piperidine-4-carboxylic acid], the results for the MIC in data set [1], in data set [2] and in data set [3] were 1 to 16 µg/mL (≈ 2.07 to 33.2 µM), 1 to 16 µg/mL (≈ 2.07 to 33.2 µM) and 0.25 to 1 µg/mL (≈ 0.518 to 2.07 µM), respectively. Moreover, the solubility at 24 h in “physchem” (setting [4]) was ≥ 800 µg/mL; in “physchem” (setting [5]) it was ≥ 800 µg/mL; in “physchem” (setting [6]) it was > 800 µg/mL; in the data set “physchem” (setting [7]) it was > 800 µg/mL.

On to `CCNC(=O)Nc1nc2cc(-c3cnc(N4CCC(C)(C(=O)O)CC4)nc3)cc(OC)c2s1` [Compound 200, 1-[5-[2-(Ethylcarbamoylamino)-7-methoxy-1,3-benzothiazol-5-yl]pyrimidin-2-yl]-4-methyl-piperidine-4-carboxylic acid], for which the MIC in data set [1], in data set [2] and in data set [3] was 1 to 16 µg/mL (≈ 2.13 to 34 µM) throughout. In addition, the solubility at 24 h in “physchem” (setting [4]) is ≥ 800 µg/mL; in the data set “physchem” (setting [5]), ≥ 800 µg/mL; in “physchem” (setting [6]), > 800 µg/mL; in “physchem” (setting [7]), > 800 µg/mL.

As to `CCNC(=O)Nc1nc2cc(-c3cnc(N4CCC(C)(C(=O)O)C4)nc3)cc(-c3ccccn3)c2s1` (stereo not drawn) [Compound 201], the figures for the MIC in data set [1], in data set [2] and in data set [3] were 1 to 16 µg/mL (≈ 1.99 to 31.8 µM), 1 to 16 µg/mL (≈ 1.99 to 31.8 µM) and 0.25 to 1 µg/mL (≈ 0.496 to 1.99 µM), respectively. In addition, the solubility at 24 h in “physchem” (setting [4]) is ≥ 800 µg/mL; in “physchem” (setting [5]) it was ≥ 800 µg/mL; in the data set “physchem” (setting [6]), > 800 µg/mL; in the data set “physchem” (setting [7]), > 800 µg/mL.

Regarding `CCNC(=O)Nc1nc2cc(-c3cnc(N4CCC(C)(C(=O)O)CC4)nc3)cc(COC)c2s1` [Compound 202, 1-[5-[2-(Ethylcarbamoylamino)-7-(methoxymethyl)-1,3-benzothiazol-5-yl]pyrimidin-2-yl]-4-methyl-piperidine-4-carboxylic acid], the MIC was 1 to 16 µg/mL (≈ 2.06 to 33 µM) in data set [1], 0.25 to 1 µg/mL (≈ 0.516 to 2.06 µM) in data set [2] and 1 to 16 µg/mL (≈ 2.06 to 33 µM) in data set [3]. The solubility at 24 h is ≥ 800 µg/mL in the data set “physchem” (setting [4]), ≥ 800 µg/mL in the data set “physchem” (setting [5]), > 800 µg/mL in the data set “physchem” (setting [6]) and > 800 µg/mL in “physchem” (setting [7]).
